Results taken from PubChem BioAssay (NCI).
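Tested at 5 concentrations; 48 h exposure; 96-well plates; endpoints linearly interpolated, else capped at highest concentration. GI50 marks 50% less growth. At the TGI there is no net growth.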

How the values were obtained:
Experiment in all cases: inhibition of tumour cell growth, NCI panel, 48 h
[1] = system: 786-0 renal
[2] = system: A498 renal
[3] = system: A549 NSCLC
[4] = system: ACHN renal
[5] = system: BT-549 breast
[6] = system: CAKI-1 renal
[7] = system: CCRF-CEM leukemia
[8] = system: COLO 205 colon
[9] = system: DU-145 prostate
[10] = system: EKVX NSCLC
[11] = system: HCC-2998 colon
[12] = system: HCT-116 colon
[13] = system: HCT-15 colon
[14] = system: HL-60(TB) leukemia
[15] = system: HOP-62 NSCLC
[16] = system: HOP-92 NSCLC
[17] = system: HS 578T breast
[18] = system: HT29 colon
[19] = system: IGROV1 ovarian
[20] = system: K-562 leukemia
[21] = system: KM12 colon
[22] = system: LOX IMVI melanoma
[23] = system: M14 melanoma
[24] = system: MALME-3M melanoma
[25] = system: MCF7 breast
[26] = system: MDA-MB-231 breast
[27] = system: MDA-MB-435
[28] = system: MDA-MB-468 breast
[29] = system: MOLT-4 leukemia
[30] = system: NCI-H226 lung
[31] = system: NCI-H23 lung
[32] = system: NCI-H460 lung
[33] = system: NCI-H522 lung
[34] = system: NCI/ADR-RES ovarian
[35] = system: OVCAR-3 ovarian
[36] = system: OVCAR-4 ovarian
[37] = system: OVCAR-5 ovarian
[38] = system: OVCAR-8 ovarian
[39] = system: PC-3 prostate
[40] = system: RPMI-8226 leukemia
[41] = system: RXF 393 renal
[42] = system: SF-268 CNS
[43] = system: SF-295 CNS
[44] = system: SF-539 CNS
[45] = system: SK-MEL-2 melanoma
[46] = system: SK-MEL-28 melanoma
[47] = system: SK-MEL-5 melanoma
[48] = system: SK-OV-3 ovarian
[49] = system: SN12C renal
[50] = system: SNB-19 CNS
[51] = system: SNB-75 CNS
[52] = system: SR leukemia
[53] = system: SW-620 colon
[54] = system: T-47D breast
[55] = system: TK-10 renal
[56] = system: U251 CNS
[57] = system: UACC-257 melanoma
[58] = system: UACC-62 melanoma
[59] = system: UO-31 renal

With `O=C(CSc1nnc(-c2ccc(-c3nc4ccccc4[nH]3)cc2)o1)Nc1ccc(Cl)cc1` the GI50 [1] was 2.04 µM, the TGI [1] was 4.45 µM and the GI50 [2] was 18.6 µM. For the same compound, the TGI [2] was 42.9 µM, the GI50 [3] was 3.65 µM and the TGI [3] was 16.4 µM. For the same compound, the GI50 [4] was 5.05 µM, the TGI [4] was 17.9 µM and the GI50 [5] was 3.4 µM. It also gave a TGI [5] of 14 µM, a GI50 [6] of 3.51 µM and a TGI [6] of 13.2 µM. For the same compound, the GI50 [7] was 5.58 µM, the TGI [7] was 33.1 µM and the GI50 [8] was 23 µM. For the same compound, the TGI [8] was > 100 µM, the GI50 [9] was 4.62 µM and the TGI [9] was 17.4 µM. It also gave a GI50 [10] of 10.8 µM, a TGI [10] of 28.1 µM and a GI50 [11] of 24.5 µM. For the same compound, the TGI [11] was > 100 µM, the GI50 [12] was 4.14 µM and the TGI [12] was 17.3 µM. For the same compound, the GI50 [13] was 6.16 µM, the TGI [13] was 23.9 µM and the GI50 [14] was 11.1 µM. The TGI [14] was > 100 µM, the GI50 [15] was 5.74 µM and the TGI [15] was 22.1 µM. The GI50 [16] was 5.06 µM, the TGI [16] was 21.5 µM and the GI50 [17] was 11.9 µM. For the same compound, the TGI [17] was 42.6 µM, the GI50 [18] was 6.62 µM and the TGI [18] was 30 µM. It also gave a GI50 [19] of 15.1 µM, a TGI [19] of 31.3 µM and a GI50 [20] of 4.59 µM. The TGI [20] was > 100 µM, the GI50 [21] was 10.6 µM and the TGI [21] was 39.5 µM. It also gave a GI50 [22] of 1.94 µM, a TGI [22] of 4.4 µM and a GI50 [23] of 4.9 µM. It also gave a TGI [23] of 18.3 µM, a GI50 [24] of 3.37 µM and a TGI [24] of 13.2 µM. It also gave a GI50 [25] of 3.73 µM, a TGI [25] of 19.3 µM and a GI50 [26] of 11.4 µM. For the same compound, the TGI [26] was 24 µM, the GI50 [27] was 3.3 µM and the TGI [27] was 13.5 µM. The GI50 [28] was 14.7 µM, the TGI [28] was 29.6 µM and the GI50 [29] was 4.42 µM. The TGI [29] was > 100 µM, the GI50 [30] was 2.5 µM and the TGI [30] was 9.38 µM. It also gave a GI50 [31] of 7.12 µM, a TGI [31] of 23.2 µM and a GI50 [32] of 2.93 µM. The TGI [32] was 10.9 µM, the GI50 [33] was 4.94 µM and the TGI [33] was 21.6 µM. It also gave a GI50 [34] of 14.8 µM, a TGI [34] of 85.7 µM and a GI50 [35] of 5.78 µM. It also gave a TGI [35] of 19.1 µM, a GI50 [36] of 9.74 µM and a TGI [36] of 22.2 µM. It also gave a GI50 [37] of 14.8 µM, a TGI [37] of 36.6 µM and a GI50 [38] of 5.91 µM. The TGI [38] was 22.3 µM, the GI50 [39] was 3.9 µM and the TGI [39] was 16.7 µM. For the same compound, the GI50 [40] was 8.39 µM, the TGI [40] was 80.3 µM and the GI50 [41] was 4.41 µM. The TGI [41] was 16.7 µM, the GI50 [42] was 4.14 µM and the TGI [42] was 20 µM. The GI50 [43] was 7.2 µM, the TGI [43] was 22 µM and the GI50 [44] was 5.26 µM. The TGI [44] was 17.9 µM, the GI50 [45] was 15.9 µM and the TGI [45] was 35.3 µM. It also gave a GI50 [46] of 4.02 µM, a TGI [46] of 14.9 µM and a GI50 [47] of 12.6 µM. The TGI [47] was 26.7 µM, the GI50 [48] was 18.4 µM and the TGI [48] was 43.7 µM. It also gave a GI50 [49] of 10.1 µM, a TGI [49] of 22.3 µM and a GI50 [50] of 14.6 µM. For the same compound, the TGI [50] was 29.7 µM, the GI50 [51] was 2.44 µM and the TGI [51] was 14.5 µM. The GI50 [52] was 10.1 µM, the TGI [52] was > 100 µM and the GI50 [53] was 3.58 µM. For the same compound, the TGI [53] was 15.8 µM, the GI50 [54] was 9.84 µM and the TGI [54] was 44.1 µM. For the same compound, the GI50 [55] was 24.8 µM, the TGI [55] was 66.9 µM and the GI50 [56] was 15.4 µM. It also gave a TGI [56] of 30.8 µM, a GI50 [57] of 9.3 µM and a TGI [57] of 26.9 µM. It also gave a GI50 [58] of 11.4 µM, a TGI [58] of 23.9 µM and a GI50 [59] of 13 µM. The TGI [59] was 25.7 µM.
